These results are taken from patent US20250136586A1, “Substituted 7-(Pyrimidin-4-yl)Quinolin-4(1H)-One Compounds as Cyclin Dependent Kinase Inhibitors” (BeiGene, Ltd., priority 2022, published 2025).

Experiment [1] addresses CDK4/Cyclin D1 (Homo sapiens (Human), UniProt P11802). Nature of the experiment: TR-FRET kinase inhibition assay, CDK4/Cyclin D1. It counts as biochemical. Particulars: 1 mM ATP, 0.15 μM Rb (Ser780)-biotin substrate, read-out: CDK4D1 IC50. As for the experimental part: Compounds disclosed herein were tested for inhibition of CDK4/Cyclin D1 or CDK6/Cyclin D3 kinase in an assay based on the time-resolved fluorescence-resonance energy transfer (TR-FRET) methodology. […] The kinase was incubated with compound for 60 minutes at room temperature and the reaction was initiated by the addition of ATP and Rb (Ser780)-biotin substrate. After reaction at room temperature for 120 minutes, an equal volume of stop/detection solution was added according to the manufacture's instruction (Cisbio Bioassays). The stop/detection solution contained Streptavidin-XL665 and Anti-pRb (Ser780) mAb-Eu Cryptate in Detection buffer (Cisbio Bioassays). […] The inhibition percentage of CDK4/Cyclin D1 or CDK6/Cyclin D3 kinase activity in presence of increasing concentrations of compounds was calculated based on the ratio of fluorescence at 665 nm to that at 620 nm. The IC50 for each compound was derived from fitting the data to the four-parameter logistic equation by Dotmatics.
(In general: TR-FRET usually uses a lanthanide donor and a delayed reading to cut background.)

Experiment [2] deals with CDK6/Cyclin D3 (Homo sapiens (Human), UniProt Q00534). Nature of the experiment: TR-FRET kinase inhibition assay, CDK6/Cyclin D3. The experiment is classed as biochemical. Particulars: 1 mM ATP, 0.15 μM Rb (Ser780)-biotin substrate, read-out: CDK6D3 IC50. As for the experimental part: Compounds disclosed herein were tested for inhibition of CDK4/Cyclin D1 or CDK6/Cyclin D3 kinase in an assay based on the time-resolved fluorescence-resonance energy transfer (TR-FRET) methodology. The assay was carried out in 384-well low volume black plates in a reaction mixture containing CDK4/Cyclin D1 or CDK6/Cyclin D3, 1 mM ATP, 0.15 μM Rb (Ser780)-biotin substrate and 0-10 μM compound in buffer containing 50 mM HEPES pH7.0, 0.02% NaN3, 0.01% BSA, 0.1 mM Orthovanadate, 50 mM MgCl2, 1 mM DTT and 0.005% Tween-20. The kinase was incubated with compound for 60 minutes at room temperature and the reaction was initiated by the addition of ATP and Rb (Ser780)-biotin substrate. After reaction at room temperature for 120 minutes, an equal volume of stop/detection solution was added according to the manufacture's instruction (Cisbio Bioassays). The stop/detection solution contained Streptavidin-XL665 and Anti-pRb (Ser780) mAb-Eu Cryptate in Detection buffer (Cisbio Bioassays). Plates were incubated at room temperature for 60 minutes, and the TR-FRET signals (ex337 nm, em665 nm/620 nm) were recorded on a PHERAstar FSX plate reader (BMG Labtech). The inhibition percentage of CDK4/Cyclin D1 or CDK6/Cyclin D3 kinase activity in presence of increasing concentrations of compounds was calculated based on the ratio of fluorescence at 665 nm to that at 620 nm. The IC50 for each compound was derived from fitting the data to the four-parameter logistic equation by Dotmatics.
Sequence of CDK6/Cyclin D3 (Q00534 whole entry): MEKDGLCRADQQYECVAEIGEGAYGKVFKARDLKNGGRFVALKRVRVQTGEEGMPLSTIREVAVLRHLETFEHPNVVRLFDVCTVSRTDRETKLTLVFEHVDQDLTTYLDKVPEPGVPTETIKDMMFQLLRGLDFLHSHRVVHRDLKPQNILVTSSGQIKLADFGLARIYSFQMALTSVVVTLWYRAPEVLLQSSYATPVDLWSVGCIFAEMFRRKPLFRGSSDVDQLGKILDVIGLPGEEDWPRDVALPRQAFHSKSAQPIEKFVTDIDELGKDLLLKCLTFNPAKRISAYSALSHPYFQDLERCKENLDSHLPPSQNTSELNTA
Sequence of CDK6/Cyclin D3 (P30281 whole entry partner): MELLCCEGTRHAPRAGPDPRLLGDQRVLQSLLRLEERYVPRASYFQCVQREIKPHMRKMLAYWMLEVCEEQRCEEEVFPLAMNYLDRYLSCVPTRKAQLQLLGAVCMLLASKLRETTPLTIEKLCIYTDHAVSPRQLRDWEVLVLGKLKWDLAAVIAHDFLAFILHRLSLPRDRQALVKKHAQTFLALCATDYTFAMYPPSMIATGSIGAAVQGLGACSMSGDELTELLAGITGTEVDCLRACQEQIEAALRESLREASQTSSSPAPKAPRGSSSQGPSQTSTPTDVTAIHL

Sequence of CDK4/Cyclin D1 (P11802 whole entry): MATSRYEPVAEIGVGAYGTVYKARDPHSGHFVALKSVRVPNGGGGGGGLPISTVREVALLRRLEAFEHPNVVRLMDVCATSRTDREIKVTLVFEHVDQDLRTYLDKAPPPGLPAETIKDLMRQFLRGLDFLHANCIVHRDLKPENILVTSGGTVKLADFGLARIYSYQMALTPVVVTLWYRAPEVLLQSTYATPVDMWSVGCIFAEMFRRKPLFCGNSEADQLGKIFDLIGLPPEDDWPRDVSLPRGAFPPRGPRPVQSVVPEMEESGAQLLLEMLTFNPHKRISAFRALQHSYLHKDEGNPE
Sequence of CDK4/Cyclin D1 (P24385 whole entry partner): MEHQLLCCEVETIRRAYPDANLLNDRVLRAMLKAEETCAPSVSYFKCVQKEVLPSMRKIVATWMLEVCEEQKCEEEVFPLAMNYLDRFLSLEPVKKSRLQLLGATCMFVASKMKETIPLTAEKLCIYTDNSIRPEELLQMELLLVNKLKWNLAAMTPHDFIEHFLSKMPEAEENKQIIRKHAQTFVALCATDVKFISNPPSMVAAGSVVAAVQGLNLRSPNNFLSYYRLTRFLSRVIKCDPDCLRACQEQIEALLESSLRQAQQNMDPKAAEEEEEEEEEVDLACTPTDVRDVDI

For the molecule `CC(C)n1c(CN2CC3CC2C3)cc(=O)c2ccc(-c3nc(N[C@@H]4CCOC[C@H]4O)ncc3F)cc21` [Example 43, 2-((2-azabicyclo[2.1.1]hexan-2-yl)methyl)-7-(5-fluoro-2-(((3S,4R)-3-hydroxytetrahydro-2H-pyran-4-yl)amino)pyrimidin-4-yl)-1-isopropylquinolin-4(1H)-one], the half-maximal inhibitory concentration (IC50) – broadly, the concentration that inhibits the measured activity by half – in experiment [1] came out at 0.025 µM; in experiment [2], 1.3 µM.
In the case of `CC(C)n1c(CN2CC[C@](C)(O)C2)cc(=O)c2ccc(-c3nc(N[C@@H]4CCOC[C@H]4O)ncc3F)cc21` [Example 61, 7-(5-fluoro-2-(((3S,4R)-3-hydroxytetrahydro-2H-pyran-4-yl)amino)pyrimidin-4-yl)-2-(((S)-3-hydroxy-3-methylpyrrolidin-1-yl)methyl)-1-isopropylquinolin-4(1H)-one], the results for the IC50 in experiment [1] and in experiment [2] were 0.03 µM and 1.17 µM, respectively.
The corresponding values for `CC(C)n1ccc(=O)c2ccc(-c3nc(N[C@@H]4CCOC[C@H]4O)ncc3F)cc21` [Example 3, 7-(5-fluoro-2-(((3S,4R)-3-hydroxytetrahydro-2H-pyran-4-yl)amino)pyrimidin-4-yl)-1-isopropylquinolin-4(1H)-one] are 0.078 µM and 1.25 µM.
The corresponding values for `CC(C)n1c(CN2C[C@@H](F)[C@@H](O)C2)cc(=O)c2ccc(-c3nc(N[C@@H]4CCOC[C@H]4O)ncc3F)cc21` [Example 45, 7-(5-fluoro-2-(((3S,4R)-3-hydroxytetrahydro-2H-pyran-4-yl)amino)pyrimidin-4-yl)-2-(((3R,4S)-3-fluoro-4-hydroxypyrrolidin-1-yl)methyl)-1-isopropylquinolin-4(1H)-one] are 0.021 µM and 0.651 µM.
As to `CC(C)n1c(CN[C@H]2C[C@H](F)C2)cc(=O)c2ccc(-c3nc(N[C@@H]4CCOC[C@H]4O)ncc3F)cc21` [Example 63, 7-(5-fluoro-2-(((3S,4R)-3-hydroxytetrahydro-2H-pyran-4-yl)amino)pyrimidin-4-yl)-2-((((1r,3R)-3-fluorocyclobutyl)amino)methyl)-1-isopropylquinolin-4(1H)-one], the 50% inhibitory concentration (IC50) in experiment [1] worked out at 0.022 µM; in experiment [2] it was 0.484 µM.
The corresponding values for `Cc1c(CN2[C@@H](C)COC[C@@H]2C)n(C(C)C)c2cc(-c3nc(N[C@@H]4CCOC[C@H]4O)ncc3F)ccc2c1=O` [Example 118, 2-(((3S,5S)-3,5-dimethylmorpholino)methyl)-7-(5-fluoro-2-(((3S,4R)-3-hydroxytetrahydro-2H-pyran-4-yl)amino)pyrimidin-4-yl)-1-isopropyl-3-methylquinolin-4(1H)-one] are 0.0011 µM and 0.0517 µM.
For the molecule `CC(C)n1c(CN2CC[C@H](F)[C@@H](O)C2)cc(=O)c2ccc(-c3nc(N[C@@H]4CCOC[C@H]4O)ncc3F)cc21` [Example 85, 7-(5-fluoro-2-(((3S,4R)-3-hydroxytetrahydro-2H-pyran-4-yl)amino)pyrimidin-4-yl)-2-(((3S,4S)-4-fluoro-3-hydroxypiperidin-1-yl)methyl)-1-isopropylquinolin-4(1H)-one], the IC50 in experiment [1] worked out at 0.019 µM; in experiment [2], 0.494 µM.
For `CC(C)n1c(CN2CCOCC2)cc(=O)c2ccc(-c3nc(N[C@@H]4CCOC[C@H]4O)ncc3Cl)cc21` [Example 26, 7-(5-chloro-2-(((3S,4R)-3-hydroxytetrahydro-2H-pyran-4-yl)amino)pyrimidin-4-yl)-1-isopropyl-2-(morpholinomethyl)quinolin-4(1H)-one] the same measures were 0.016 µM and 0.336 µM.
For `CC(C)n1c(CN[C@H]2CCOC2)cc(=O)c2ccc(-c3nc(N[C@@H]4CCOC[C@H]4O)ncc3F)cc21` [Example 67, 7-(5-fluoro-2-(((3S,4R)-3-hydroxytetrahydro-2H-pyran-4-yl)amino)pyrimidin-4-yl)-1-isopropyl-2-((((S)-tetrahydrofuran-3-yl)amino)methyl)quinolin-4(1H)-one] the same measures were 0.021 µM and 0.483 µM.
As for `Cc1c(Cl)c(=O)c2ccc(-c3nc(N[C@@H]4CCOC[C@H]4O)ncc3F)cc2n1C(C)C` [Example 15, 3-chloro-7-(5-fluoro-2-(((3S,4R)-3-hydroxytetrahydro-2H-pyran-4-yl)amino)pyrimidin-4-yl)-1-isopropyl-2-methylquinolin-4(1H)-one], the IC50 in experiment [1] was determined as 0.015 µM; in experiment [2], 0.255 µM.
For `CC(C)n1c(CN2CCOCC23CC3)cc(=O)c2ccc(-c3nc(N[C@@H]4CCOC[C@H]4O)ncc3F)cc21` [Example 73, 2-((7-oxa-4-azaspiro[2.5]octan-4-yl)methyl)-7-(5-fluoro-2-(((3S,4R)-3-hydroxytetrahydro-2H-pyran-4-yl)amino)pyrimidin-4-yl)-1-isopropylquinolin-4(1H)-one] the same measures were 0.0075 µM and 0.225 µM.
The corresponding values for `CNC(=O)c1cc(=O)c2c(F)cc(-c3nc(N[C@@H]4CCOC[C@H]4O)ncc3F)cc2n1C(C)C` [Example 19, 5-fluoro-7-(5-fluoro-2-(((3S,4R)-3-hydroxytetrahydro-2H-pyran-4-yl)amino)pyrimidin-4-yl)-1-isopropyl-N-methyl-4-oxo-1,4-dihydroquinoline-2-carboxamide] are 0.024 µM and 0.504 µM.
In the case of `CC(C)n1c(CN2CCC[C@]3(CCN(C)C3=O)C2)cc(=O)c2ccc(-c3nc(N[C@@H]4CCOC[C@H]4O)ncc3F)cc21` [Example 52, (S)-7-((7-(5-fluoro-2-(((3S,4R)-3-hydroxytetrahydro-2H-pyran-4-yl)amino)pyrimidin-4-yl)-1-isopropyl-4-oxo-1,4-dihydroquinolin-2-yl)methyl)-2-methyl-2,7-diazaspiro[4,5]decan-1-one], the half-inhibitory concentration (IC50) was determined as 0.0064 µM in experiment [1] and 0.467 µM in experiment [2].
For the molecule `CC(=O)c1cn(C(C)C)c2cc(-c3nc(N[C@@H]4CCOC[C@H]4O)ncc3F)ccc2c1=O` [Example 4, 3-acetyl-7-(5-fluoro-2-(((3S,4R)-3-hydroxytetrahydro-2H-pyran-4-yl)amino)pyrimidin-4-yl)-1-isopropylquinolin-4(1H)-one], the IC50 was determined as 0.251 µM in experiment [1] and 0.979 µM in experiment [2].
With `CNC(=O)c1c(Cl)c(=O)c2ccc(-c3nc(N[C@@H]4CCOC[C@H]4O)ncc3F)cc2n1C(C)C` [Example 23, 3-chloro-7-(5-fluoro-2-(((3S,4R)-3-hydroxytetrahydro-2H-pyran-4-yl)amino)pyrimidin-4-yl)-1-isopropyl-N-methyl-4-oxo-1,4-dihydroquinoline-2-carboxamide], the IC50 in experiment [1] was determined as 0.053 µM; in experiment [2], 0.445 µM.
For `Cc1cc(=O)c2ccc(-c3nc(N[C@@H]4CCOC[C@H]4O)ncc3F)cc2n1C1CCCC1` [Example 10, 1-cyclopentyl-7-(5-fluoro-2-(((3S,4R)-3-hydroxytetrahydro-2H-pyran-4-yl)amino)pyrimidin-4-yl)-2-methylquinolin-4(1H)-one] the same measures were 0.04 µM and 1.44 µM.
For `CC(C)n1c(CN2CCC3(CCCO3)CC2)cc(=O)c2ccc(-c3nc(N[C@@H]4CCOC[C@H]4O)ncc3F)cc21` [Example 44, 2-((1-oxa-8-azaspiro[4.5]decan-8-yl)methyl)-7-(5-fluoro-2-(((3S,4R)-3-hydroxytetrahydro-2H-pyran-4-yl)amino)pyrimidin-4-yl)-1-isopropylquinolin-4(1H)-one], the IC50 in experiment [1] worked out at 0.029 µM; in experiment [2] it was 1.28 µM.
